These results are taken from patent US3963777A, “1-Polyhydroxy alkyl-1,4-benzodiazepin-2-ones” (Hoffmann-La Roche Inc., priority 1975, dated 1976).

Data set [1] can be described thus: standard pentamethylenetetrazole (pentetrazole) test for anticonvulsant activity, method of Orloff. Type of data set: in vivo. To be noted: p.o. From the text: The compounds of formula I above and their pharmaceutically acceptable acid addition salts are useful as sedative muscle relaxant and anti-convulsant agents.
A further data set relates to mice. The data set is described as follows: standard rotating rod test (sedative and muscle-relaxant activity). In kind it is in vivo. To be noted: p.o. The procedure:
In this test, the ability of mice to achieve a coordinated motor performance is investigated. After peroral administration of the test substance, the mice are placed upon a horizontal slowly rotating rod and the time they remain on the rod is recorded. The ED50 is that dose which reduces the holding on period of the mice by 50% as compared to the holding on period prior to the administration of the test substance.

Data set [2] in a line: LD50 (p.o.), acute toxicity. The following applies: in vivo, po.

SMILES strings stand for the structures.

Turning to `O=C1CN=C(c2ccccc2F)c2cc(Cl)ccc2N1CC(O)CO` (stereo not drawn) [Compound A, 7-chloro-1-(2,3-dihydroxypropyl)-5-(2-fluorophenyl)-1,3-dihydro-2H-1,4-benzodiazepin-2-one], the “APR 2.0 (dosage of an anticonvulsant which causes a two-fold pentetrazole consumption in contrast to an untreated control group)” value in data set [1] was found to be 5.6 mg/kg. In addition, the “ED50 (dose which reduces the holding on period of the mice by 50% as compared to the holding on period prior to administration)” value in the data set with mice came to 5.1 mg/kg. Moreover, the LD50 (in general, the dose at which mortality reaches 50%) in data set [2] lay within 1250 to 2500 mg/kg.
